# Laboratory results from patent US12569536B2, “Macrocyclic peptides for targeted inhibition of autophagy” (Board of Regents, The University of Texas System, priority 2019, dated 2026).
# Entries after “also recorded” stand apart in the source; their conditions may differ. Read-outs that look alike come from different tables or passages of the source. Numbered stars: 1 amine (or outer) side, 2 acyl side, 3 side chain; on linkers, the order of the positions; unused ones are H or OH. Bridge positions count the residues as written; N and C are the ends. Square brackets hold non-standard residues; d marks the D form. Ends that are not written are not given here. Peptide text beside a SMILES is read from it. Glutaryl = O=C(CCCC(=O)[*:2])[*:1]; NMeA = CN[C@@H](C)C(=O)O
# Key:
# OVCAR8 cells = conditions: 50 μM peptide; for cell viability (MTT), DIRAS3-induced (autophagic) cells: OVCAR8, Dox-induced, 72 hours; for cell viability (MTT), non-DIRAS3 induced cells: OVCAR8, no Dox (non-autophagic), up to 72 hours
# Experimental: (§1) FIGS. 6A-D: SUPR4B in the DIRAS3 autophagy model. FIGS. 6A&B—MTT viability assays with 50 M linear and cyclic SUPR 4B on non-DIRAS3 induced OVCAR8 (FIG. 6B) and SKOv3 (FIG. 6A) cells. […] Induction was performed using 1 g/mL DOX.
# (§2) FIGS. 8A-F: SUPR4B in the DIRAS3 autophagy model. […] Inhibition of autophagy by the present compound were hypothesized to restore cellular growth. […] FIGS. 8A&B—MTT viability assays with 50 M linear and cyclic SUPR on non-DIRAS3 induced OVCAR8 (FIG. 8A) and SKOv3 (FIG. 8B) cells. […] FIGS. 8C&D—MTT viability assays on the effect of 50 M linear and cyclic LC3 SUPR4B on DIRAS3-induced OVCAR8 (FIG. 8C) and SKOv3 (FIG. 8D) cells. Induction was performed using 1 g/mL DOX.
# (§3) After selection, the library was sequenced and lead compounds were subjected to thermodynamic and cellular assays to develop a structure-activity relationship modeling the interaction between the SUPR peptide and the target.
# LC3B = LC3B (Homo sapiens, UniProt Q9GZQ8); format: binding; conditions: peptide immobilized on solid phase
# SKOv3 cells = experiment: MTT viability assay in DIRAS3 autophagy model; conditions: 50 μM peptide; for cell viability (MTT), DIRAS3-induced (autophagic) cells: SKOv3, Dox-induced, 72 hours; for cell viability (MTT), non-DIRAS3 induced cells: SKOv3, no Dox (non-autophagic), up to 72 hours
# Experimental: as §1, §2, §3
# LC3 = LC3 (Homo sapiens, UniProt Q9H492); experiment: Surface plasmon resonance binding to LC3
# GABARAP1 = format: binding; conditions: peptide immobilized on solid phase
# Hey cell line [1] = experiment: MTT viability assay, cisplatin-resistant ovarian cancer cells; format: cell-based; conditions: cisplatin 10 μM + peptide, 48 hr
# Text: (§4) FIGS. 12A-D: SUPR4B1W sensitizes ovarian cancer cells to cisplatin.
# OVCAR8 cell line [2] = experiment: as above; format: cell-based; conditions: OVCAR8, cisplatin 10 μM + peptide, 48 hr
# Text: as §4
# Atg8 = Atg8 (Saccharomyces cerevisiae, UniProt P38182); format: binding, yeast; conditions: peptide immobilized on solid phase
# GABARAP2 = GABARAP2 (Homo sapiens, UniProt P60520); format: binding; conditions: peptide immobilized on solid phase
# SKOv3-ARHI cells = experiment: Western blotting of p62 and LC3I/LC3II in DIRAS3-induced cells; format: cell-based; conditions: peptide-treated, 72 h
# Experimental: (§5) FIGS. 7A-B: SUPR4B in the DIRAS3 autophagy model.
# (§6) FIGS. 8A-F: SUPR4B in the DIRAS3 autophagy model. […] Induction was performed using 1 g/mL DOX.
# Hey cell line [3] = experiment: Western blots of LC3-I/LC3-II and p62, cisplatin-resistant ovarian cancer cells; format: cell-based; conditions: 48 hr
# Text: as §4
# OVCAR8 cell line [4] = experiment: as above; format: cell-based; conditions: 48 hr
# Text: as §4
# LC3C = target: T1, LC3C (Homo sapiens, UniProt Q9BXW4); format: binding; conditions: peptide immobilized on solid phase
# T1 construct: made in house
# LC3A [5] = target: T2, LC3A (Homo sapiens, UniProt Q9H492); format: binding; conditions: peptide immobilized on solid phase
# T2 construct: made in house
# ubiquitin = target: T3, ubiquitin (Homo sapiens, UniProt P62987); format: binding; conditions: peptide immobilized on solid phase
# T3 construct: made in house
# [6] = system: OVCAR8 orthotopic ovarian tumors; experiment: Orthotopic ovarian tumor model with carboplatin; format: in vivo; conditions: for final tumor mass, agent administered alone: SUPR peptide 10 mg/kg or carboplatin 25 mg/kg
# Experimental: FIG. 13: SUPR4B1W sensitizes orthotopic ovarian tumors to carboplatin treatment. Mice were injected IP with 2 million OVCAR8 cells and treated three times per week for four weeks with vehicle control, SUPR peptide (10 mg/kg), carboplatin (25 mg/kg), or combination of SUPR peptide and carboplatin. At the end of four weeks, mice were sacrificed and tumors were dissected. […] For each vertical groups of data points, the top group represents Mouse Weight and the bottom group represents Tumor Weight.
# In animal model experiments, mice were implanted with a cisplatin-resistant ovarian cancer cell line (OVCAR8) and treated with carboplatin, SUPR4B1W peptide, or carboplatin+SUPR4B1W peptide for 4 weeks. At the conclusion of the study, the mice were sacrificed and the mass of the intraperitoneal tumors measured.
# [7] = system: Atg4B:LC3-AMC interaction; experiment: Atg4B cleavage of LC3-AMC (fluorescence); format: biochemical; conditions: LC3-AMC 120 nM, Atg4B 220 pM, increasing peptide concentrations
# Text: FIG. 9A—In naturally occurring LIMs, the most common amino acid in the leading position of the motif is tryptophan. […] The reason for this may be that there exists only one codon for tryptophan, making it much less likely to appear in a selected peptide than another W-site recognizing amino acid. Modifying the lead position of SUPR 4B (SEQ ID NO: 1) from phenylalanine to tryptophan was hypothesized to produce a peptide that obtains improved binding affinity towards LC3 by more closely mimicking a naturally occurring LIM. Tryptophan may also confer increased hydrophobicity, which may enhance cell uptake. […] Atg19 is provided in SEQ ID NO: 10, Atg32 is provided in SEQ ID NO: 11, Atg3 is provided in SEQ ID NO: 12, Atg4B is provided in SEQ ID NO: 13, p62 is provided in SEQ ID NO: 14, NBR1 is provided in SEQ ID NO: 15. […] FIG. 9D—LC3-AMC (120 nM) was incubated with Atg4B (220 pM) in the presence of SUPR4B1W or a non-functional scrambled variant at the concentrations shown. Cleavage of LC3-AMC was measured by increased fluorescence (λEx=380 nm, […]).
# Cleavage of LC3-AMC was measured by increased fluorescence.
# LC3A [8] = target: T2, LC3A; experiment: Binding of radiolabeled individual peptide fusions to immobilized LC3A; conditions: for Binding analysis of clones on immobilized LC3 (FIG. 3E): radiolabeled peptide fusions
# Experimental: A randomized 8-mer peptide library (with a diversity of 3.78×10^10 unique sequences) was designed, and SUPR peptide mRNA display selections incorporating N-methyl alanine and proteinase-K screening were performed against recombinant LC3 (FIGS. 3A-E). For this, milligram quantities of His6-LC3A were bacterially expressed and purified, chemically biotinylated, and immobilized on streptavidin agarose resin for binding selection. Prior to each round of selection, mRNA-fusion libraries were translated using an in vitro rabbit reticulocyte lysate system incorporating amber-codon nonsense suppression with N-methyl alanine. Fusions were cyclized between the side chain of lysine and the N-terminus and briefly exposed to proteinase K to eliminate any sequences particularly susceptible to proteolysis. Binding selections were carried out by incubating mRNA display libraries with the immobilized His6-LC3A followed by elution in SDS and PCR amplification. After seven rounds of binding selection, the number of PCR cycles required to recover the enriched dsDNA after each binding selection had reduced by 40% (FIG. 3C). […] Over 90% of sequences in the library contained an N-methyl alanine residue at a conserved position adjacent to the fixed lysine residue. […] The majority of sequences contained variations of the canonical Autophagy-Interacting Motif observed in natural LC3 adaptor proteins (FIG. 4). […] Binding was confirmed by incubation of radiolabeled individual peptide fusions with immobilized LC3A (FIG. 3E; Table 2).
# OVCAR8-ARHI cells = experiment: Western blotting of p62 and LC3I/LC3II in DIRAS3-induced cells; format: cell-based; conditions: peptide-treated, 72 h
# Experimental: as §5, §6
# [9] = mice, IP OVCAR8, three times per week for four weeks
# Atg8, sequence (P38182 1-116): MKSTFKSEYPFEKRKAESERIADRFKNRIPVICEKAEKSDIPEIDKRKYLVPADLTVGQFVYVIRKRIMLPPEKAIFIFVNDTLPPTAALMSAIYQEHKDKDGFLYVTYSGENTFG
# T1 sequence (Q9BXW4 1-126 limits assumed): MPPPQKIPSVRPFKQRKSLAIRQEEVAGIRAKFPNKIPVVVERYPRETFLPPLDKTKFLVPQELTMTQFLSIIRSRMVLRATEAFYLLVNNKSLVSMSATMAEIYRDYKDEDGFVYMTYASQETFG
# GABARAP2, sequence (P60520 1-116 limits assumed): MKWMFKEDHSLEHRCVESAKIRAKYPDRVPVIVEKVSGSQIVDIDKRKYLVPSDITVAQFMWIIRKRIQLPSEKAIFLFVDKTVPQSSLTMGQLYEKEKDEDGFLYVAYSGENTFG
compound,measurement,setting,value
CSCC[C@@H]1NC(=O)CCCC(=O)NCCCC[C@@H](C(=O)O)NC(=O)[C@H](C)N(C)C(=O)[C@H](C)NC(=O)[C@H]([C@@H](C)O)NC(=O)[C@H](C(C)C)NC(=O)[C@H](CCCNC(=N)N)NC(=O)[C@H](Cc2c[nH]cn2)NC(=O)[C@@H]2CCCN2C(=O)[C@H](Cc2c[nH]c3ccccc23)NC1=O [SUPR 4B1W] (MWPHRVTA[NMeA]K-OH; linker N-10 via Glutaryl),"cell viability (MTT), DIRAS3-induced (autophagic) cells",OVCAR8 cells,enhanced viability rescue phenotype
same,"cell viability (MTT), DIRAS3-induced (autophagic) cells",OVCAR8 cells; listed as SUPR4B1W,almost completely restores cell viability
same,"cell viability (MTT), non-DIRAS3 induced cells",OVCAR8 cells,no change in cell viability
same,binding to LC3B,LC3B,bound tightly
same,"cell viability (MTT), DIRAS3-induced (autophagic) cells",SKOv3 cells,enhanced viability rescue phenotype
same,"cell viability (MTT), DIRAS3-induced (autophagic) cells",SKOv3 cells; listed as SUPR4B1W,almost completely restores cell viability
same,"cell viability (MTT), non-DIRAS3 induced cells",SKOv3 cells,no change in cell viability
same,improvement of apparent dissociation constant relative to SUPR4B,LC3,~10 fold
same,binding to GABARAP1,GABARAP1,moderate off-target binding
same,cell viability (MTT) in combination with cisplatin,Hey cell line [1],re-sensitized the resistant cell lines to cisplatin
same,cell viability (MTT) in combination with cisplatin,OVCAR8 cell line [2],re-sensitized the resistant cell lines to cisplatin
same,binding to yeast LC3 ortholog Atg8,Atg8,moderate off-target binding
same,binding to GABARAP2,GABARAP2,moderate off-target binding
same,LC3I/LC3II ratio,SKOv3-ARHI cells,decreased LC3I/LC3II ratio
same,p62 protein levels,SKOv3-ARHI cells,accumulation of p62
same,p62 accumulation in combination with cisplatin,Hey cell line [3]; cisplatin 10 μM + peptide 50 µM,triggered accumulation of p62
same,LC3-I/LC3-II ratios in combination with cisplatin,Hey cell line [3]; cisplatin 10 μM + peptide,dramatically perturbed LC3-I/LC3-II ratios
same,p62 accumulation in combination with cisplatin,"OVCAR8 cell line [4]; OVCAR8, cisplatin 10 μM + peptide 50 µM",triggered accumulation of p62
same,LC3-I/LC3-II ratios in combination with cisplatin,"OVCAR8 cell line [4]; OVCAR8, cisplatin 10 μM + peptide",dramatically perturbed LC3-I/LC3-II ratios
same,binding to LC3C,LC3C,Almost no binding
same,binding to LC3A,LC3A [5],bound tightly
same,binding to ubiquitin,ubiquitin,Almost no binding
same,"number of mice with no detectable tumors, peptide combined with carboplatin","[6]; IP OVCAR8, four weeks, peptide 10 mg/kg + carboplatin 25 mg/kg",6 mice
same,"final tumor mass, agent administered alone",[6]; [9],no change in tumor volume
same,"final tumor mass, peptide combined with carboplatin","[6]; mice, IP OVCAR8, three times per week for four weeks, peptide 10 mg/kg + carboplatin 25 mg/kg",almost completely tumor-free; also recorded: significantly reduced tumor mass
same,Cleavage of LC3-AMC by Atg4B (fluorescent signal),[7],significantly decreased fluorescent signal
"CCN(CC)CCCC(C)Nc1ccnc2cc(Cl)ccc12 (stereo not drawn) [chloroquine, reference compound]","cell viability (MTT), DIRAS3-induced (autophagic) cells",OVCAR8 cells,did not result in a statistically significant increase in cell viability
same,"cell viability (MTT), DIRAS3-induced (autophagic) cells",SKOv3 cells,did not result in a statistically significant increase in cell viability
MSLHRVTVZK (MSLHRVTV[NMeA]K; bridge N-10) [Clone 4C],% of radiolabeled peptide-fusions bound to immobilized LC3,LC3A [8],1%
"N.N.O=C([O-])C1(C(=O)[O-])CCC1.[Pt+2] [carboplatin, reference compound]","final tumor mass, agent administered alone",[6]; [9],expected reduction in tumor volume
MLSDIPVNDK [Clone 4E],Binding analysis of clones on immobilized LC3 (FIG. 3E),LC3A [8],selective LC3 binding
MLARSLRDZK (MLARSLRD[NMeA]K; bridge N-10) [Clone 25I],% of radiolabeled peptide-fusions bound to immobilized LC3,LC3A [8],4%
MNARSLRDZK (MNARSLRD[NMeA]K; bridge N-10) [Clone 25F],Binding analysis of clones on immobilized LC3 (FIG. 3E),LC3A [8],selective LC3 binding
MFSHRVTLZK (MFSHRVTL[NMeA]K; bridge N-10) [Clone 25C],Binding analysis of clones on immobilized LC3 (FIG. 3E),LC3A [8],selective LC3 binding
MYTRRVRLZK (MYTRRVRL[NMeA]K; bridge N-10) [Clone 25E],% of radiolabeled peptide-fusions bound to immobilized LC3,LC3A [8],3%
MYARSLRDZK (MYARSLRD[NMeA]K; bridge N-10) [Clone 25A],Binding analysis of clones on immobilized LC3 (FIG. 3E),LC3A [8],selective LC3 binding
"CSCC[C@@H]1NC(=O)CCCC(=O)NCCCC[C@@H](C(=O)O)NC(=O)[C@H](C)N(C)C(=O)[C@H](C)NC(=O)[C@H]([C@@H](C)O)NC(=O)[C@H](C(C)C)NC(=O)[C@H](CCCNC(=N)N)NC(=O)[C@H](Cc2c[nH]cn2)NC(=O)[C@@H]2CCCN2C(=O)[C@H](Cc2ccccc2)NC1=O [Clone 4B, MFPHRVTAZK] (MFPHRVTA[NMeA]K-OH; linker N-10 via Glutaryl)","cell viability (MTT), DIRAS3-induced (autophagic) cells",OVCAR8 cells,significant rescue of viability
same,"cell viability (MTT), non-DIRAS3 induced cells",OVCAR8 cells,no statistically significant effect on cell viability
same,"cell viability (MTT), DIRAS3-induced (autophagic) cells",SKOv3 cells,significant rescue of viability
same,"cell viability (MTT), non-DIRAS3 induced cells",SKOv3 cells,no statistically significant effect on cell viability
same,LC3I/LC3II ratio,SKOv3-ARHI cells,decreased LC3I/LC3II ratio
same,p62 protein levels,SKOv3-ARHI cells,increase in p62 protein levels
same,LC3I/LC3II ratio,OVCAR8-ARHI cells,decreased LC3I/LC3II ratio
same,p62 protein levels,OVCAR8-ARHI cells,increase in p62 protein levels
same,Binding analysis of clones on immobilized LC3 (FIG. 3E),LC3A [8],selective LC3 binding; also recorded: nearly quantitative binding
